18 compounds from ChEMBL document CHEMBL4007425, “Drug Repurposing of Histone Deacetylase Inhibitors That Alleviate Neutrophilic Inflammation in Acute Lung Injury and Idiopathic Pulmonary Fibrosis via Inhibiting Leukotriene A4 Hydrolase and Blocking LTB4 Biosynthesis” (J Med Chem, 2017) can be followed below.

The target in data set [1] is T1, Leukotriene A-4 hydrolase (Homo sapiens, UniProt P09960).
T1 sequence (P09960 whole entry): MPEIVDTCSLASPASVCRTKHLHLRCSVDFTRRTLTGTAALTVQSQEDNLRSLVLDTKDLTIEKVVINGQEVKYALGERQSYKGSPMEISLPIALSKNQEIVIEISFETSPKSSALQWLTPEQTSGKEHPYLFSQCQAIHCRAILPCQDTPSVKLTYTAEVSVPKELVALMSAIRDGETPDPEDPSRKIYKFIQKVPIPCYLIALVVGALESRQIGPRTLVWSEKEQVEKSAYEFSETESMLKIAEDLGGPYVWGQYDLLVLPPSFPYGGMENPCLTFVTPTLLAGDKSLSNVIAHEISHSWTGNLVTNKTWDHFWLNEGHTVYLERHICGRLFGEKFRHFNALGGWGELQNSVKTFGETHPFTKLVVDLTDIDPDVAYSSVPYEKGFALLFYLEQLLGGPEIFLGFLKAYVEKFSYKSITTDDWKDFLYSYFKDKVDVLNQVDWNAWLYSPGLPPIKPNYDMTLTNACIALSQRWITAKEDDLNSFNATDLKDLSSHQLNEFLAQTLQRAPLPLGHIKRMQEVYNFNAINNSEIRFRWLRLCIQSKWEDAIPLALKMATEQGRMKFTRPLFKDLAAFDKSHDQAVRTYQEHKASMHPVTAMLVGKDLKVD
Description: Inhibition of recombinant human LTA4H aminopeptidase activity expressed in Escherichia coli BL21 (DE3) pLysS assessed as formation of p-NA from Ala-p-NA preincubated for 10 mins followed by substrate addition measured after 10 mins. The class given is ADME.

In data set [2] the target is T1, Leukotriene A-4 hydrolase. Description: Inhibition of recombinant human LTA4H Epoxide Hydrolase expressed in Escherichia coli BL21 (DE3) pLysS preincubated for 10 mins followed by addition of LTA4 as substrate measured after 15 mins by reverse-phase HPLC analysis.
Data set [3] has as its target T2, Leukotriene A-4 hydrolase (LTA4H) aminopeptidase activity (Homo sapiens, UniProt P09960).
T2 sequence (P09960 whole entry): T1 sequence (P09960 whole entry)
Nature of the data set: Inhibition of recombinant human LTA4H aminopeptidase activity expressed in Escherichia coli BL21 (DE3) pLysS assessed as formation of p-NA from Ala-p-NA at 10 uM preincubated for 10 mins followed by substrate addition measured after 10 mins.

Data set [4] concerns the target T3, Leukotriene A-4 hydrolase (Homo sapiens) (UniProt P09960).
T3 sequence (whole entry): T1 sequence (P09960 whole entry)
Description: Binding affinity to recombinant human LTA4H hydrolase assessed as change in melting temperature at 50 uM by SYPRO orange dye-based thermofluor assay

Data set [5] has as its target T3, Leukotriene A-4 hydrolase (Homo sapiens). The settings on record: at 10 µM.
Description: Inhibition of recombinant human LTA4H Epoxide Hydrolase expressed in Escherichia coli BL21 (DE3) pLysS at 10 uM preincubated for 10 mins followed by addition of LTA4 as substrate measured after 15 mins by reverse-phase HPLC analysis
Data set [6] relates to Mus musculus. Description: Anti-inflammatory activity in LPS-induced C57BL/6 mouse model of acute lung injury assessed as reduction in pathological changes at 25 mg/kg, ip and co-treated with ((2S,3R)-3-amino-2-hydroxy-4-phenylbutanamido)-4-methylpentanoic acid pretreated for 1 hr followed LPS challenge measured after 24 hrs by hematoxylin and eosin staining based microscopy. The class given is functional, organism-based.

Data set [7] is filed under the species Mus musculus. The settings on record: C57BL/6, at 25 mg/kg.
Description: Inhibition of LTB4 biosynthesis in LPS-induced C57BL/6 mouse model of acute lung injury BLAF at 25 mg/kg, ip by ELISA
In data set [8] the target is T3, Leukotriene A-4 hydrolase (Homo sapiens). The following applies: 10 uM.
The test system of data set [9] is Mus musculus. Description: Anti-inflammatory activity in BLM-induced C57BL/6 mouse model of acute lung neutrophilic inflammation assessed as reduction in number of neutrophils in BALF at 30 mg/kg, ip qd for 7 days post BLM challenge measured on day 7. The class given is functional, organism-based.

pIC50: −log10 of the molar value. The source made the active and inactive calls. No cut-off for these calls is given here.

By pIC50 is commonly meant the IC50 on a negative log10 scale, so that one unit is a factor of ten. One may read the inhibition as the share of the control response that was lost under treatment. As usually defined, the ΔTm is the change in melting temperature against a reference sample. For the compound `O=C(CCCCCN1C(=O)c2cccc3cccc(c23)C1=O)NO`, the pIC50 was 5.36 in data set [1] and less than 5.00 in data set [2]. Moreover, in data set [3], the inhibition at 10 min, 10 µM was greater than 50%. In addition, the ΔTm in [4] was -0.68 °C. The compound further returned an inhibition in [5] greater than 50%.

In the case of `CC(C)C[C@H](NC(=O)[C@@H](O)[C@H](N)Cc1ccccc1)C(=O)O`, the result in the data set on Mus musculus [6] was Active. For the same compound, in the data set listed under Mus musculus [7], the inhibition result was “Active”.

As to `CN(CCCOc1ccc(Cc2ccccc2)cc1)CCC(=O)O`, in [8], the ΔTm stood at 2.95 °C.

Take `COC(=O)c1ccc2c(c1)NC(=O)/C2=C(\Nc1ccc(N(C)C(=O)CN2CCN(C)CC2)cc1)c1ccccc1`: the outcome in the data set on Mus musculus [9] was Active.

As to `CN(C)Cc1c(C(=O)NCCOc2ccc(C(=O)NO)cc2)oc2ccccc12` [ABEXINOSTAT], the pIC50 in data set [1] and in data set [2] was less than 5.00 throughout. The inhibition at 10 min, 10 µM in data set [3] (probe Ala-p-NA) is greater than 50%. The ΔTm in [4] is 0.24 °C. Further, the inhibition in data set [5] is greater than 50%.

`O=C(/C=C/c1cccc(S(=O)(=O)Nc2ccccc2)c1)NO` [BELINOSTAT]: the pIC50 in [1] and in data set [2] was less than 5.00 in each case. Moreover, the inhibition at 10 min, 10 µM in [3] (probe Ala-p-NA) was greater than 50%. The ΔTm in data set [4] worked out at 0.11 °C. In addition, the inhibition in [5] is greater than 50%.

As to `C#Cc1cccc(Nc2ncnc3cc(OC)c(OCCCCCCC(=O)NO)cc23)c1` [CUDC-101], the pIC50 in data set [1] and in data set [2] was less than 5.00 throughout. In addition, in data set [3], the inhibition at 10 min, 10 µM is greater than 50%. For the same compound, the ΔTm in [4] amounted to 0.3 °C. Also, in data set [5], the inhibition was greater than 50%.

For `Nc1ccccc1NC(=O)c1ccc(CNC(=O)OCc2cccnc2)cc1` [ENTINOSTAT], the pIC50 in data set [1] and in data set [2] was less than 5.00 each time. Also, the inhibition at 10 min, 10 µM in data set [3] (probe Ala-p-NA) is greater than 50%. The ΔTm in data set [4] worked out at 0.39 °C. In addition, in [5], the inhibition is greater than 50%.

Turning to `CCN(CC)Cc1ccc2cc(COC(=O)Nc3ccc(C(=O)NO)cc3)ccc2c1` [GIVINOSTAT], the pIC50 in [1] and in [2] was less than 5.00 throughout. For the same compound, the inhibition at 10 min, 10 µM in [3] (probe Ala-p-NA) was greater than 50%. Also, in data set [4], the ΔTm was found to be 0.19 °C. This compound also registered an inhibition in data set [5] greater than 50%.

In the case of `Nc1ccccc1NC(=O)c1ccc(CNc2nccc(-c3cccnc3)n2)cc1` [MOCETINOSTAT], the pIC50 in data set [1] and in data set [2] was less than 5.00 in each case. For the same compound, in [3] (probe Ala-p-NA), the inhibition at 10 min, 10 µM is greater than 50%. Besides, the ΔTm in data set [4] was -0.33 °C. In data set [5], the inhibition is greater than 50%.

In the case of `Cc1[nH]c2ccccc2c1CCNCc1ccc(/C=C/C(=O)NO)cc1` [PANOBINOSTAT], the pIC50 in [1] and in data set [2] was less than 5.00 in each case. For the same compound, the inhibition at 10 min, 10 µM in data set [3] (probe Ala-p-NA) was greater than 50%. For the same compound, in [4], the ΔTm was 0.12 °C. Moreover, the inhibition in data set [5] was greater than 50%.

As to `CCCCc1nc2cc(/C=C/C(=O)NO)ccc2n1CCN(CC)CC` [PRACINOSTAT], the pIC50 in data set [1] and in [2] was less than 5.00 throughout. In data set [3], the inhibition at 10 min, 10 µM is greater than 50%. The ΔTm in data set [4] was 0.31 °C. In data set [5], this compound registered an inhibition greater than 50%.

In the case of `Cn1cc(CNCC2CCN(c3ncc(C(=O)NO)cn3)CC2)c2ccccc21` [QUISINOSTAT], the pIC50 in [1] and in data set [2] was less than 5.00 throughout. Moreover, the inhibition at 10 min, 10 µM in [3] (probe Ala-p-NA) is greater than 50%. Further, in [4], the ΔTm came out at 0.52 °C. The same compound gave an inhibition in [5] greater than 50%.

Turning to `CN(C)Cc1ccc(S(=O)(=O)n2ccc(/C=C/C(=O)NO)c2)cc1` [RESMINOSTAT], the negative logarithm of the IC50 (pIC50) in [1] and in data set [2] was less than 5.00 each time. Besides, in [3] (probe Ala-p-NA), the inhibition at 10 min, 10 µM was greater than 50%. In addition, the ΔTm in [4] amounted to 0.44 °C. The inhibition in [5] was greater than 50%.

Regarding `O=C(CCCCCCNC(=O)c1cnc(N(c2ccccc2)c2ccccc2)nc1)NO` [RICOLINOSTAT], the pIC50 in data set [1] and in [2] was less than 5.00 each time. In addition, the inhibition at 10 min, 10 µM in data set [3] (probe Ala-p-NA) was greater than 50%. Also, the ΔTm in data set [4] turned out to be 0.55 °C. The compound also showed an inhibition in data set [5] greater than 50%.

`CC(/C=C/C(=O)NO)=C\[C@@H](C)C(=O)c1ccc(N(C)C)cc1` [TRICHOSTATIN]: the pIC50 in [1] and in [2] was less than 5.00 each time. In addition, the inhibition at 10 min, 10 µM in data set [3] (probe Ala-p-NA) was greater than 50%. For the same compound, the ΔTm in [4] stood at 0.17 °C. The same compound returned an inhibition in [5] greater than 50%.

In the case of `O=C(CCCCCCC(=O)Nc1ccc([C@H]2O[C@@H](CSc3nc(-c4ccccc4)c(-c4ccccc4)o3)C[C@@H](c3ccc(CO)cc3)O2)cc1)NO` [TUBACIN], the pIC50 in data set [1] and in data set [2] was less than 5.00 throughout. In data set [3] (probe Ala-p-NA), the inhibition at 10 min, 10 µM is greater than 50%. The ΔTm in data set [4] was 0.34 °C. This compound also showed an inhibition in data set [5] greater than 50%.

For the compound `CCCC(CCC)C(=O)O` [VALPROATE SODIUM], the pIC50 in data set [1] and in data set [2] was less than 5.00 in each case. The inhibition at 10 min, 10 µM in data set [3] (probe Ala-p-NA) is greater than 50%. In addition, the ΔTm in [4] stood at 0.36 °C. The inhibition in data set [5] was greater than 50%.
